Experimental data: patent US12054483B2, “Small molecule inhibitors of DYRK/CLK and uses thereof” (Arizona Board of Regents on Behalf of the University of …, priority 2018, dated 2024)

Target: DYRK1A (Homo sapiens, UniProt Q13627)
Assay: Affinity testing of compounds with DYRK1A (KD)
Assay type: binding
Conditions: DYRK1A affinity key classes

Row | Compound | Kd [nM]
1 | Cc1nc2ccc(-c3ccncc3)nc2n1-c1ccc(CN2CCS(=O)(=O)CC2)cc1 [Compound 126, 4-(4-(2-methyl-5-(pyridin-4-yl)-3H-imidazo[4,5-b]pyridin-3-yl)benzyl)thiomorpholine 1,1-dioxide] | 0.5 to 100
2 | c1cc(-c2ccc3ncc(-c4ccc(N5CCN(C6COC6)CC5)nc4)n3n2)ccn1 [Compound 83, 3-(6-(4-(oxetan-3-yl)piperazin-1-yl)pyridin-3-yl)-6-(pyridin-4-yl)imidazo[1,2-b]pyridazine] | 0.5 to 100
3 | Cc1nc2ccc(-c3cc[n+]([O-])cc3)nc2n1-c1ccc2c(c1)OCO2 [Compound 60, 4-(3-(benzo[d][1,3]dioxol-5-yl)-2-methyl-3H-imidazo[4,5-b]pyridin-5-yl)-1λ^4-pyridin-2-ylium-1-olate] | 501 to 10000
4 | COc1cc(-n2c(C)nc3ccc(-c4ccncc4)nc32)ccc1CN1CCOCC1 [Compound 142, 4-(2-methoxy-4-(2-methyl-5-(pyridin-4-yl)-3H-imidazo[4,5-b]pyridin-3-yl)benzyl)morpholine] | 101 to 500
5 | Cc1nc2ncc(-c3ccncc3)nc2n1-c1ccc2[nH]cnc2c1 [Compound 131, 1-(1H-benzo[d]imidazol-5-yl)-2-methyl-6-(pyridin-4-yl)-1H-imidazo[4,5-b]pyrazine] | 101 to 500
6 | Cc1cc(-c2ccc3ncc(-c4ccc(CN5CCN[C@H](C)C5)cc4)n3n2)ccn1 [Compound 94, (R)-3-(4-((3-methylpiperazin-1-yl)methyl)phenyl)-6-(2-methylpyridin-4-yl)imidazo[1,2-b]pyridazine] | 0.5 to 100
7 | Cc1nc2cnc(-c3ccnc(N)c3)cc2n1-c1cccc(CN2CCOCC2)c1 [Compound 180, 4-(2-methyl-1-(3-(morpholinomethyl)phenyl)-1H-imidazo[4,5-c]pyridin-6-yl)pyridin-2-amine] | 101 to 500
8 | c1cc(-c2ccc3ncc(-c4ccc(N5CCOCC5)nc4)n3n2)ccn1 [Compound 73, 4-(5-(6-(pyridin-4-yl)imidazo[1,2-b]pyridazin-3-yl)pyridin-2-yl)morpholine] | 0.5 to 100
9 | c1cn2nc(-c3cn[nH]c3)ccc2n1 [Compound 26, 6-(1H-pyrazol-4-yl)imidazo[1,2-b]pyridazine] | 101 to 500
10 | NC(=O)c1ccc(-n2cnc3ccc(-c4ccncc4)c(F)c32)nc1 [Compound 15, 6-(7-fluoro-6-(pyridin-4-yl)-1H-benzo[d]imidazol-1-yl)nicotinamide] | 0.5 to 100
11 | Cc1nc2ccc(-c3cnn(C)c3)nc2n1-c1ccc(N2CCOCC2)c(F)c1 [Compound 146, 4-(2-fluoro-4-(2-methyl-5-(1-methyl-1H-pyrazol-4-yl)-3H-imidazo[4,5-b]pyridin-3-yl)phenyl)morpholine] | 0.5 to 100
12 | Cc1nc2ccc(-c3ccncc3)nc2n1-c1ccc2[nH]c(C(F)(F)F)nc2c1 [Compound 34, 2-methyl-5-(pyridin-4-yl)-3-(2-(trifluoromethyl)-1H-benzo[d]imidazol-5-yl)-3H-imidazo[4,5-b]pyridine] | 0.5 to 100
13 | N#Cc1ccc(-n2cnc3ccc(-c4ccncc4)c(F)c32)nc1 [Compound 14, 6-(7-fluoro-6-(pyridin-4-yl)-1H-benzo[d]imidazol-1-yl)nicotinonitrile] | 0.5 to 100
14 | Fc1cc(-c2cnc3ccc(-c4ccncc4)nn23)ccc1CN1CCOCC1 [Compound 78, 4-(2-fluoro-4-(6-(pyridin-4-yl)imidazo[1,2-b]pyridazin-3-yl)benzyl)morpholine] | 101 to 500
15 | Cc1nc2ccc(-c3ccncc3)nc2n1-c1ccc(CN2[C@H](C)COC[C@@H]2C)cc1 [Compound 117, (3S,5R)-3,5-dimethyl-4-(4-(2-methyl-5-(pyridin-4-yl)-3H-imidazo[4,5-b]pyridin-3-yl)benzyl)morpholine] | 101 to 500
16 | Cc1cc(-c2ccc3ncc(-c4ccc(CN5CCCCC5)cc4)n3n2)ccn1 [Compound 92, 6-(2-methylpyridin-4-yl)-3-(4-(piperidin-1-ylmethyl)phenyl)imidazo[1,2-b]pyridazine] | 101 to 500
17 | Cc1nc2ccc(-c3ccncc3)c(F)c2n1-c1ccc2c(c1)OCO2 [Compound 19, 1-(benzo[d][1,3]dioxol-5-yl)-7-fluoro-2-methyl-6-(pyridin-4-yl)-1H-benzo[d]imidazole] | 0.5 to 100
18 | Cc1nc2ccc(-c3ccncc3)nc2n1-c1ccc(N2CCOCC2)cc1 [Compound 134, 4-(4-(2-methyl-5-(pyridin-4-yl)-3H-imidazo[4,5-b]pyridin-3-yl)phenyl)morpholine] | 101 to 500
19 | Cc1nc2ccc(-c3ccncc3)nc2n1-c1ccc(CN2CCCC(F)(F)C2)cc1 [Compound 65, 3-(4-((3,3-difluoropiperidin-1-yl)methyl)phenyl)-2-methyl-5-(pyridin-4-yl)-3H-imidazo[4,5-b]pyridine] | 101 to 500
20 | Cc1nc2ccc(-c3ccnc(N)c3)c(F)c2n1-c1ccc(N2CCOCC2)cc1 [Compound 127, 4-(7-fluoro-2-methyl-1-(4-morpholinophenyl)-1H-benzo[d]imidazol-6-yl)pyridin-2-amine] | 0.5 to 100
21 | c1cc(-c2ccc3ncc(-c4ccc5[nH]ccc5c4)n3n2)ccn1 [Compound 77, 3-(1H-indol-5-yl)-6-(pyridin-4-yl)imidazo[1,2-b]pyridazine] | 0.5 to 100
22 | Cc1nc2ccc(-c3cc[nH]c(=O)c3)nc2n1-c1ccc(CN2CCOCC2)cc1 [Compound 45, 4-(2-methyl-3-(4-(morpholinomethyl)phenyl)-3H-imidazo[4,5-b]pyridin-5-yl)pyridin-2(1H)-one] | 501 to 10000
23 | CN1CCN(Cc2ccc(-c3cnc4ccc(-c5ccncc5)nn34)cc2)CC1 [Compound 100, 3-(4-((4-methylpiperazin-1-yl)methyl)phenyl)-6-(pyridin-4-yl)imidazo[1,2-b]pyridazine] | 101 to 500

Continued, values first:

Row | Kd [nM] | Compound
24 | 0.5 to 100 | Cc1nc2ccc(-c3ccnc(N)c3)nc2n1-c1ccc(N2CCN(C)CC2)c(F)c1 [Compound 151, 4-(3-(3-fluoro-4-(4-methylpiperazin-1-yl)phenyl)-2-methyl-3H-imidazo[4,5-b]pyridin-5-yl)pyridin-2-amine]
25 | 0.5 to 100 | Cc1nc2ccc(-c3ccnc(N)c3)nc2n1-c1ccc(CN2CCCCC2)cc1 [Compound 159, 4-(2-methyl-3-(4-(piperidin-1-ylmethyl)phenyl)-3H-imidazo[4,5-b]pyridin-5-yl)pyridin-2-amine]
26 | 0.5 to 100 | Cc1nc2ccc(-c3ccnc(N)c3)nc2n1-c1ccc(N2CCS(=O)(=O)CC2)c(F)c1 [Compound 182, 4-(4-(5-(2-aminopyridin-4-yl)-2-methyl-3H-imidazo[4,5-b]pyridin-3-yl)-2-fluorophenyl)thiomorpholine 1,1-dioxide]
27 | 0.5 to 100 | Cc1nc2ccc(-c3ccnc(N)c3)nc2n1-c1ccc(N2C[C@@H](C)O[C@@H](C)C2)nc1 [Compound 161, 4-(3-(6-((2S,6R)-2,6-dimethylmorpholino)pyridin-3-yl)-2-methyl-3H-imidazo[4,5-b]pyridin-5-yl)pyridin-2-amine]
28 | 0.5 to 100 | CC(=O)N1CCN(c2ccc(-n3c(C)nc4ccc(-c5ccnc(N)c5)nc43)cc2F)CC1 [Compound 184]
29 | 0.5 to 100 | Cc1nc2ccc(-c3ccnc(N)c3)nc2n1-c1ccc(CN2CCOCC2)cc1 [Compound 44, 4-(2-methyl-3-(4-(morpholinomethyl)phenyl)-3H-imidazo[4,5-b]pyridin-5-yl)pyridin-2-amine]
30 | 0.5 to 100 | CC(=O)N1C[C@@H]2[C@H](C1)[C@H]2n1c(C)nc2ccc(-c3ccnc(N)c3)nc21 [Compound 47, 1-((1R,5S,6s)-6-(5-(2-aminopyridin-4-yl)-2-methyl-3H-imidazo[4,5-b]pyridin-3-yl)-3-azabicyclo[3.1.0]hexan-3-yl)ethan-1-one]
31 | 0.5 to 100 | Cc1nc2ccc(-c3ccnc(N)c3)nc2n1-c1cccc(CN2CCOCC2)c1 [Compound 153, 4-(2-methyl-3-(3-(morpholinomethyl)phenyl)-3H-imidazo[4,5-b]pyridin-5-yl)pyridin-2-amine]
32 | 101 to 500 | CC(=O)N1CC[C@H](n2c(C)nc3ccc(-c4ccncc4)nc32)C1 [Compound 39, (S)-1-(3-(2-methyl-5-(pyridin-4-yl)-3H-imidazo[4,5-b]pyridin-3-yl)pyrrolidin-1-yl)ethan-1-one]
33 | 0.5 to 100 | Cc1nc2ccc(-c3ccnc(N)c3)nc2n1-c1cnc2[nH]ccc2c1 [Compound 152, 4-(2-methyl-3-(1H-pyrrolo[2,3-b]pyridin-5-yl)-3H-imidazo[4,5-b]pyridin-5-yl)pyridin-2-amine]
34 | 0.5 to 100 | Cc1nc2ccc(-c3ccnc(N)c3)nc2n1-c1ccc(N2C[C@H](C)O[C@@H](C)C2)c(F)c1 [Compound 183, 4-(3-(4-((2S,6S)-2,6-dimethylmorpholino)-3-fluorophenyl)-2-methyl-3H-imidazo[4,5-b]pyridin-5-yl)pyridin-2-amine]
35 | 0.5 to 100 | Cc1nc2ccc(-c3ccncc3)nc2n1-c1ccc(CN2C[C@@H]3C[C@@H]2CO3)cc1 [Compound 124, (1S,4R)-5-(4-(2-methyl-5-(pyridin-4-yl)-3H-imidazo[4,5-b]pyridin-3-yl)benzyl)-2-oxa-5-azabicyclo[2.2.1]heptane]
36 | 101 to 500 | Cc1nc2ccc(-c3cnn(C)c3)nc2n1-c1ccc2c(c1)OCO2 [Compound 31, 3-(benzo[d][1,3]dioxol-5-yl)-2-methyl-5-(1-methyl-1H-pyrazol-4-yl)-3H-imidazo[4,5-b]pyridine]
37 | 0.5 to 100 | Cc1nc2ccc(-c3ccnc(N)c3)nc2n1-c1ccc(N2CCOC[C@@H]2C)c(F)c1 [Compound 171, (S)-4-(3-(3-fluoro-4-(3-methylmorpholino)phenyl)-2-methyl-3H-imidazo[4,5-b]pyridin-5-yl)pyridin-2-amine]
38 | 0.5 to 100 | CCOC(=O)c1ccc(-n2c(C)nc3ccc(-c4ccncc4)nc32)cc1 [Compound 40, ethyl 4-(2-methyl-5-(pyridin-4-yl)-3H-imidazo[4,5-b]pyridin-3-yl)benzoate]
39 | 0.5 to 100 | Nc1cc(-c2ccc3nccn3n2)ccn1 [Compound 24, 4-(imidazo[1,2-b]pyridazin-6-yl)pyridin-2-amine]
40 | 0.5 to 100 | Cc1nc2ccc(-c3ccncc3)nc2n1-c1ccc(Cl)cn1 [Compound 141, 3-(5-chloropyridin-2-yl)-2-methyl-5-(pyridin-4-yl)-3H-imidazo[4,5-b]pyridine]
